According to patent publication US20090209571A1, “Phenanthrene derivatives as MPGES-1 inhibitors” (priority 2006, published 2009):

Target: T1, human mPGES-1 (Homo sapiens, UniProt O14684)
T1 construct: expressed in transfected cells; host or cells: CHO-K1 cells, transiently transfected; microsomal fraction used
T1 sequence (O14684 1-152): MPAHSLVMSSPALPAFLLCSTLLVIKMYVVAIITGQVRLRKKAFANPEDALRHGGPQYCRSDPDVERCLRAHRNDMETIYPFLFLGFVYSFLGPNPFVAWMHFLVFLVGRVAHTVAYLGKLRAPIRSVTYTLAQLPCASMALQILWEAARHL
Test: Microsomal Prostaglandin E Synthase Assay
Type: biochemical
Details: microsomal fractions from CHO-K1 cells transiently transfected with human mPGES-1 cDNA; 1 μM PGH2; PGE2 by EIA; average of at least n=3; read-out: h-CHO (nM), potency expressed as IC50
Method: Compounds are tested as inhibitors of prostaglandin E synthase activity in microsomal prostaglandin e synthases, whole cell and in vivo assays. These assays measure prostaglandin E2 (PGE2) synthesis using either Enzymatic Immunoassay (EIA) or mass spectrometry. Cells used for microsomal preparation are CHO-K1 cells transiently transfected with plasmids encoding the human mPGES-1 cDNA. Cells used for cell-based experiments are human A549 (which express human mPGES-1). Guinea pigs are used to test the activity of selected compounds in vivo. In all these assays, 100% activity is defined as the PGE2 production in vehicle-treated samples. IC50 and ED50 represent the concentration or dose of inhibitor required to inhibit PGE2 synthesis by 50% as compared to the uninhibited control.
Prostaglandin E synthase microsomal fractions are prepared from CHO-K1 cells transiently transfected with plasmid encoding the human mPGES-1 cDNA. Microsomes are then prepared and the PGES assay begins with the incubation of 5 μg/ml microsomal PGES-1 with compound or DMSO (final 1%) for 20-30 minutes at room temperature. The enzyme reactions are performed in 200 mM KPi pH 7.0, 2 mM EDTA and 2.5 mM GSH-reduced form. The enzymatic reaction is then initiated by the addition of 1 μM final PGH2 substrate prepared in isopropanol (3.5% final in assay well) and incubated at room temperature for 30 seconds. The reaction is terminated by the addition of SnCl2 in 1N HCl (1 mg/ml final). Measurement of PGE2 production in the enzyme reaction aliquots is done by EIA using a standard commercially available kit (Cat #: 901-001 from Assay Designs).
The potency is expressed as IC50 and the value indicated is an average of at least n=3.

Row | Structure (SMILES) | IC50 [nM]
1 | Fc1cccc(Cl)c1-c1nc2c3ccccc3c3sc(Cl)cc3c2[nH]1 [Example 2] | 10.5
2 | N#Cc1cccc(C#N)c1-c1nc2c3ccc(Cl)cc3c3ccoc3c2[nH]1 [Example 12] | 3.2
3 | Fc1cccc(Cl)c1-c1nc2c3ccc(Cl)cc3c3cc(Br)sc3c2[nH]1 [Example 15] | 1.8
4 | CC(C)(O)C#Cc1ccc2c(c1)c1c(Cl)c(Cl)sc1c1[nH]c(-c3c(C#N)cccc3C#N)nc21 [Example 28] | 1.5
